# Legend:
# [1] = system: U87-MG skin xenograft tumor explants; assay: U87-MG skin xenograft tumor explants, ERSR markers; type: in vivo, mice; settings: samples after 7 and 21 days
# From the text: U7 represents vehicle treated sample after 7 days. U21 represents vehicle treated sample after 21 days. Q7 represents quinacridine-treated sample after 7 days. Q21 represents quinacridine-treated sample after 21 days. 9AA-7 represents 9-aminoacridine-treated sample after 7 days. 9AA-21 represents 9-aminoacridine-treated sample after 21 days.
# [2] = system: subcutaneous U87-MG gliomas; assay: Mice bearing subcutaneous U87-MG gliomas; type: in vivo
# From the text: The estimated survival prolongment is 14 days in mice life which compares at 851 days in human life based on a life expectancy of 18 months in mice and 90 years in human. Also, since one animal was tumor-free at the end of the treatment that translates in an expected 16% cure rate.
# FIG. 29a graphs % tumor weight/control as a function of days after implantation. […] Such a profile indicates effectiveness in vivo for both treatment and for prevention of relapse. FIG. 29b graphs % animal survival as a function of days after implantation. […] Such a profile indicates effectiveness in vivo for both treatment and for prevention of relapse.
# Mice bearing subcutaneous gliomas were received daily oral administration of 200 mg/kg of quinacrine. […] In FIG. 29 is shown the effect of 100 mg/kg of quinacrine and 10 mg/kg 9-aminoacridine in Mice bearing subcutaneous U87-MG gliomas.
# glioma cells = assay: Gliotoxicity, cell line not stated; type: cell-based
# From the text: Spiperone is a selective D2 dopamine receptor antagonist. This drug is used in the treatment of schizophrenia and other hallucinatory states. […] In an effort to develop Structure-Activity Relationships around the chosen compounds, a search of commercially available compounds that are either close structural analogs of these lead compounds (for example, acridine and quinoline analogs of quinacrine) or are related to these in terms of their pharmacological activity (dopamine receptor antagonists related to spiperone) was performed.
# [3] = intrapleural, 100 mg/day in 50 ml saline for 4 days; cited from earlier work
# C6 cells = settings: tested at less than 1 μM; cited from earlier work
# platelets = settings: cited from earlier work
# [4] = 200 mg/kg daily oral for 14 days
# [5] = full dose over about 45 days, Q oral, 9-AA I.P.
# [6] = half dose (maintenance dose) up to about 60 days
compound,measurement,setting,value
CCN(CC)CCCC(C)Nc1c2ccc(Cl)cc2nc2ccc(OC)cc12 (stereo not drawn) [quinacrine],ERSR activation and GRP78 target protein in tumor explants,[1],activaiton of ERSR and changes in GRP78 target protein
same,caspase 12 activation in tumor explants,[1],activation of caspase 12 is evident
same,antiglioma action,[2]; 100 mg/kg of quinacrine and 10 mg/kg 9-aminoacridine,powerful antiglioma action
same,delay in tumor growth,[2]; 200 mg/kg daily oral,14 days
same,tumor growth after withdrawal of treatment versus controls,[2]; 200 mg/kg daily oral,significant reduction in tumor growth than controls
same,estimated survival prolongment in mice life,[2]; [4],14 days
same,tumor in one of the treated animals,[2]; [4],disappearance of the tumor
same,tumor size in treated animals,[2]; [4],tumors decrease in size
same,effect on tumor growth,"[2]; 200 mg/kg daily oral, at 11 days",already significant
same,inhibition of tumor growth,"[2]; 200 mg/kg daily oral, at 21 days",6-7 folds
same,animal survival rate compared to control,[2]; [5],increased survival rate
same,tumor size compared to control,[2]; [5],decrease in tumor size
same,animal survival rate compared to control,[2]; [6],survival rate was high
same,tumor size compared to control,[2]; [6],tumor size remained relatively constant
same,delay / survival prolongment translated to human life,"[2]; life expectancy 18 months in mice, 90 years in human",851 days
same,cure rate,"[2]; quinacrine 200 mg/kg daily oral, one animal tumor-free",16%
same,cytotoxicity in human cells versus rat cells,glioma cells,higher cytotoxicity in human cells than in rat cells
same,gliotoxicity,glioma cells; cell line not stated,by far the most effective gliotoxic compound
same,peak concentration,[3],less than 10 ng/ml
same,killing of C6 cells,C6 cells,ineffective in killing C6 cells
same,alpha-granule release reaction of platelets,platelets,prevent the alpha-granule release reaction of platelets

# Source: US20110060000A1, “ACRIDINE ANALOGS IN THE TREATMENT OF GLIOMAS” (priority 2009, published 2011)
